The text below walks through data of ChEMBL document CHEMBL3132769, “Fragment growing to retain or alter the selectivity of anchored kinase hinge-binding fragments” (Medchemcomm, 2014).

Each structure is given as a SMILES string.

The target in assay [1] is T1, MAP kinase-activated protein kinase 5 (Homo sapiens) (UniProt Q8IW41).
T1 sequence (whole entry): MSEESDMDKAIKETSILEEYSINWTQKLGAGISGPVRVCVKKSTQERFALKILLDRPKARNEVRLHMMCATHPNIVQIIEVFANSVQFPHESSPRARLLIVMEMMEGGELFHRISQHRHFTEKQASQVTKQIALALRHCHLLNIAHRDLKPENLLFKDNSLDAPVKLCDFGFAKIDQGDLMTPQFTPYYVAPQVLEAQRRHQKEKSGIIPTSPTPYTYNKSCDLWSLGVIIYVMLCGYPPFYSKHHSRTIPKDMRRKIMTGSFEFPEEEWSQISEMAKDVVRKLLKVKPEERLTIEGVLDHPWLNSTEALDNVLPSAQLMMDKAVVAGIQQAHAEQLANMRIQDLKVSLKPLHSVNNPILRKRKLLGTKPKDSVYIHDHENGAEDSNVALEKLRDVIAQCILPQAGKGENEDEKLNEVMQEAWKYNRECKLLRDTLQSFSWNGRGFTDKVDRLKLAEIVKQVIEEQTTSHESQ
The assay is described as follows: Inhibition of human full length PRAK expressed in baculovirus assessed as substrate phosphorylation using fluorescence-labelled peptides as substrate at 0.1 uM after 90 mins by microfluidic peptide phosphorylation assay.

For assay [2], the target named is Protein kinase C beta type (Homo sapiens) (UniProt P05771). The settings on record: 0.1 uM.
Chain of Protein kinase C beta type (Homo sapiens) (P05771 2-671 limits assumed): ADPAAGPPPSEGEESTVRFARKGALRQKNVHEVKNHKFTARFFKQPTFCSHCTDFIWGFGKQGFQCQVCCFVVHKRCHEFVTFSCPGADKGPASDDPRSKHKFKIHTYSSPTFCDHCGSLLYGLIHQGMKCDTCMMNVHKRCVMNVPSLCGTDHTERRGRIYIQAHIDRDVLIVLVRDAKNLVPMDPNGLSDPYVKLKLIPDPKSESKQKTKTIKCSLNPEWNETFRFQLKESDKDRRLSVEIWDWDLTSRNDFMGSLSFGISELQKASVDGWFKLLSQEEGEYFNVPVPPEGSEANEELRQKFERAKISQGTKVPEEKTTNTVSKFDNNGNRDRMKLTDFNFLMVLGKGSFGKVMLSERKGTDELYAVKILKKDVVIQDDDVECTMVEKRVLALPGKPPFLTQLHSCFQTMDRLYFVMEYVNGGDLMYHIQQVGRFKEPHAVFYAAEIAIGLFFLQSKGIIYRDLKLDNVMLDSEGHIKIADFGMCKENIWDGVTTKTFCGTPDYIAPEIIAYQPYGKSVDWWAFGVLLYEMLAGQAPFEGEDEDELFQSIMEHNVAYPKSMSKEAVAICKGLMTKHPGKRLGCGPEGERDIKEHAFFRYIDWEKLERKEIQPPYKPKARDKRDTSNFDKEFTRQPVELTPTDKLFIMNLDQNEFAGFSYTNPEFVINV
Description: Inhibition of human full length PKC beta2 expressed in baculovirus assessed as substrate phosphorylation using fluorescence-labelled peptides as substrate at 0.1 uM after 90 mins by microfluidic peptide phosphorylation assay
Assay [3] deals with Calcium/calmodulin-dependent protein kinase type II subunit delta (Homo sapiens) (UniProt Q13557). Conditions: 0.1 uM.
Chain of Calcium/calmodulin-dependent protein kinase type II subunit delta (Homo sapiens) (Q13557 whole entry): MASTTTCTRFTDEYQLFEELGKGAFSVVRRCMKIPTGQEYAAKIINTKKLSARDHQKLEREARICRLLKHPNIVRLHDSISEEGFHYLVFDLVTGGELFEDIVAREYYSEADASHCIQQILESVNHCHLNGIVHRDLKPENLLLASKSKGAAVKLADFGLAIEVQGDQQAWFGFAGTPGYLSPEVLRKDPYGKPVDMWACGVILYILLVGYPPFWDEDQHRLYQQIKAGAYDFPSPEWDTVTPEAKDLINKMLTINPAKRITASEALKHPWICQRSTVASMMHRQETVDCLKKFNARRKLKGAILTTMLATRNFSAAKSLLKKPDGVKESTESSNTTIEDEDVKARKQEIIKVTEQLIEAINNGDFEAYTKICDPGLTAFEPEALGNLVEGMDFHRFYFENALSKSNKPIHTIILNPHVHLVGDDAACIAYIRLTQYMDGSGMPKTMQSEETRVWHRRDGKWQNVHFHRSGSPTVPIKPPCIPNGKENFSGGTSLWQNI
Description: Inhibition of human full length CAMK2D expressed in baculovirus assessed as substrate phosphorylation using fluorescence-labelled peptides as substrate at 0.1 uM after 90 mins by microfluidic peptide phosphorylation assay
The target in assay [4] is T2, Testis-specific serine/threonine-protein kinase 2 (Homo sapiens) (UniProt Q96PF2).
T2 sequence (whole entry): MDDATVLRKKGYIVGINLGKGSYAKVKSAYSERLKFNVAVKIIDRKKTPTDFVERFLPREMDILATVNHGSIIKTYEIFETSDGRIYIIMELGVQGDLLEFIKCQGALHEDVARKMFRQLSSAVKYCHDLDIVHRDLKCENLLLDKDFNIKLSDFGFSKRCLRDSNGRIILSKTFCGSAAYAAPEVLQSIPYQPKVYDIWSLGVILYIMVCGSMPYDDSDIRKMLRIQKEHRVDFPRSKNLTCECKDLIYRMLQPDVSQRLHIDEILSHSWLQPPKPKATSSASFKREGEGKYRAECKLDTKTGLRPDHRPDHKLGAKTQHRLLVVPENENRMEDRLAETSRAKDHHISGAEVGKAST
Conditions: 0.1 uM.
Description: Inhibition of human full length TSSK2 expressed in baculovirus assessed as substrate phosphorylation using fluorescence-labelled peptides as substrate at 0.1 uM after 90 mins by microfluidic peptide phosphorylation assay

Assay [5] concerns the target T3, Serine/threonine-protein kinase BRSK1 (Homo sapiens) (UniProt Q8TDC3).
T3 sequence (whole entry): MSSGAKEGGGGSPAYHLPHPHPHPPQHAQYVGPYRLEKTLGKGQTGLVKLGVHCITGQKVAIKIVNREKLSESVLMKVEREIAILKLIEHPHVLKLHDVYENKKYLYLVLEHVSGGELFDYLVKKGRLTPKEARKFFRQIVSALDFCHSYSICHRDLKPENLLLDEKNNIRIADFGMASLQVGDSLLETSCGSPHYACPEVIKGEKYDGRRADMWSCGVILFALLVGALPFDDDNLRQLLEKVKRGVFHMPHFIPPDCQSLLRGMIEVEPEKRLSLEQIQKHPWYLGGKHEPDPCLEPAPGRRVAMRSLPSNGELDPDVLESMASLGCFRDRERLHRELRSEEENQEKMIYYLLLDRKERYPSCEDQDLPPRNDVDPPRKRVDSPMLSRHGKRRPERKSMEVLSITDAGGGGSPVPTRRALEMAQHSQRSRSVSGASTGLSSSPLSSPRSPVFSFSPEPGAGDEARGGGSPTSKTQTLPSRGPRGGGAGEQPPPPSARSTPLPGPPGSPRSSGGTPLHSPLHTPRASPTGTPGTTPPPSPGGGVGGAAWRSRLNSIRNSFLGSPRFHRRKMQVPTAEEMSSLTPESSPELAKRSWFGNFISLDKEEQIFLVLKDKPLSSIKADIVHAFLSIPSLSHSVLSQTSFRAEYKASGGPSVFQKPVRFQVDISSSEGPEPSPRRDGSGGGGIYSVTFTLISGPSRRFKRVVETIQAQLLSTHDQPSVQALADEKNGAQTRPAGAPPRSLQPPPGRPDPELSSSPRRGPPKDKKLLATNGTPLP
The assay is described as follows: Inhibition of human full length BRSK1 expressed in baculovirus assessed as substrate phosphorylation using fluorescence-labelled peptides as substrate at 420 uM after 90 mins by microfluidic peptide phosphorylation assay.

Assay [6] concerns the target Tyrosine-protein kinase BTK (Homo sapiens) (UniProt Q06187). The assay is described as follows: Inhibition of human full length BTK expressed in baculovirus assessed as substrate phosphorylation using fluorescence-labelled peptides as substrate at 95 uM after 90 mins by microfluidic peptide phosphorylation assay.
The target of assay [7] is Protein kinase C alpha type (Homo sapiens) (UniProt P17252). In words: Inhibition of human truncated PKC alpha expressed in baculovirus assessed as substrate phosphorylation using fluorescence-labelled peptides as substrate at 9 uM after 90 mins by microfluidic peptide phosphorylation assay.
Assay [8] deals with T4, Serine/threonine-protein kinase DCLK2 (Homo sapiens) (UniProt Q8N568).
T4 sequence (whole entry): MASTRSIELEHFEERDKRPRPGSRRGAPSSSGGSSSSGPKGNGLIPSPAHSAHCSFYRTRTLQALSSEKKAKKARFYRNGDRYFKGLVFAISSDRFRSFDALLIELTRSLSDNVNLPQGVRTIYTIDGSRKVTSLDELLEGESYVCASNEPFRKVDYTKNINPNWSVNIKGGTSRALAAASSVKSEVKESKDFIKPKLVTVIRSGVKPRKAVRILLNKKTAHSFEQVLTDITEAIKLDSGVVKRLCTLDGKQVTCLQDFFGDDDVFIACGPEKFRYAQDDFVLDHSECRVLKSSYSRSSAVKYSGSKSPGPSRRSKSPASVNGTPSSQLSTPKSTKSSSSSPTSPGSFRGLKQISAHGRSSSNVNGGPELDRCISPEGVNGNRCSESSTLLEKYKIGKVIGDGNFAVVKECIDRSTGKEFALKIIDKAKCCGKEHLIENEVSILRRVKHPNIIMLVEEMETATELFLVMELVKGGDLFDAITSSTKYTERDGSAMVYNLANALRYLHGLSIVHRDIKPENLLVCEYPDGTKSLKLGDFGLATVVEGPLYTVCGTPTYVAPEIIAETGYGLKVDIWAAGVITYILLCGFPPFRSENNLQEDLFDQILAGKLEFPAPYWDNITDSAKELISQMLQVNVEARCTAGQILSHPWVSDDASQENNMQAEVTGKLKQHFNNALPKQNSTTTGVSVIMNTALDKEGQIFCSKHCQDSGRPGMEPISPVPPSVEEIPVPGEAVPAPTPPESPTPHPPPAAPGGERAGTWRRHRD
In words: Inhibition of human full length DCAMKL2 expressed in baculovirus assessed as substrate phosphorylation using fluorescence-labelled peptides as substrate at […] after 90 mins by microfluidic peptide phosphorylation assay.

The target of assay [9] is Protein kinase C alpha type (Homo sapiens) (UniProt P17252). In words: Inhibition of human truncated PKC alpha expressed in baculovirus assessed as substrate phosphorylation using fluorescence-labelled peptides as substrate at 2 uM after 90 mins by microfluidic peptide phosphorylation assay.

Chain of Tyrosine-protein kinase BTK (Homo sapiens) (Q06187 whole entry, the tested form may be a part): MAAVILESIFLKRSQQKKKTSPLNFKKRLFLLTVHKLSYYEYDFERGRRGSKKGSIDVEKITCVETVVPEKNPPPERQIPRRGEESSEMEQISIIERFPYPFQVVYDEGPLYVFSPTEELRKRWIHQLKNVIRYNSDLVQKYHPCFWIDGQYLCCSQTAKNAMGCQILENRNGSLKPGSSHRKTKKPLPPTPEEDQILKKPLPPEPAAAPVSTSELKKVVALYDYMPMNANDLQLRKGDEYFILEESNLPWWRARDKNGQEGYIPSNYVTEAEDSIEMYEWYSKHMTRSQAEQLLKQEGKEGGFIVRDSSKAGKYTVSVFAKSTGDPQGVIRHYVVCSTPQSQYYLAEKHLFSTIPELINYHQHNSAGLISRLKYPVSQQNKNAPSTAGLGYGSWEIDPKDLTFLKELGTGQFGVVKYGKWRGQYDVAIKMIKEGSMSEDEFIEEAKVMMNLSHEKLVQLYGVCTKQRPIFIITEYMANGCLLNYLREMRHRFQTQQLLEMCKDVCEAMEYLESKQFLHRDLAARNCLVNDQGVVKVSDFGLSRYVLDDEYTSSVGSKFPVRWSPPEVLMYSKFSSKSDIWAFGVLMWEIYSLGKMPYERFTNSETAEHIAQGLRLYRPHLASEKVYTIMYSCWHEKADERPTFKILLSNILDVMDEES

Turning to `C[C@H](CN(C)C)Oc1nc(Nc2cc3cccc(Cl)c3cn2)cnc1C#N`, the inhibition (as a rule, the share of the control response that was lost under treatment) in assay [1] was determined as 3.5%; in assay [2], 0%; in assay [3], 0%; in assay [4], 0%. For `c1nc(N2CCOCC2)c2nc[nH]c2n1`, the inhibition in assay [5] was 51.5%. `NCCc1ccc(-c2ncnc3[nH]cnc23)cc1`: the inhibition in assay [6] was found to be 17%. Regarding `NCC1CN(c2ncnc3[nH]c4cnccc4c23)CCO1` (centres undefined), the inhibition in assay [7] was found to be 14.5%.

Consider `COC(=O)c1cnc(Nc2cnc(C#N)cn2)cc1NCC1CCNCC1`, for which the inhibition in assay [8] came out at 4.5%. For the compound `NC1CCN(c2ncnc3[nH]ccc23)CC1`, the inhibition in [9] was found to be 18%.
